Four compounds from patent publication US20060040957A1, “BICYCLIC PYRIMIDINE MATRIX METALLOPROTEINASE INHIBITORS” (priority 2001, published 2006) can be followed below.

Each structure is given as a SMILES string. Read-outs that look alike come from different tables or passages of the source. A value given as a limit tells only on which side of the number the result lay.

What all share (type): biochemical
Experiment [1] deals with T1, MMP-1FL (full length interstitial collagenase) (Homo sapiens, UniProt P03956).
T1 sequence (P03956 100-469): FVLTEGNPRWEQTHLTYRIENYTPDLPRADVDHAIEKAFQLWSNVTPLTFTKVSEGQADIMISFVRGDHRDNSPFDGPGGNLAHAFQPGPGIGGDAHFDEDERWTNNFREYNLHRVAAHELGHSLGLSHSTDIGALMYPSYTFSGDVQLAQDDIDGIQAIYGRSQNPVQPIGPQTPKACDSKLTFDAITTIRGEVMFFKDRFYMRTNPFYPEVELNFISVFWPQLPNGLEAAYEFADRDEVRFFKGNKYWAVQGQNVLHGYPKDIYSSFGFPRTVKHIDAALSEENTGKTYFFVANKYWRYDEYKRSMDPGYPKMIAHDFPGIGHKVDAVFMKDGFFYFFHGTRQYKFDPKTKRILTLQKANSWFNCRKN
Description: Thiopeptolide substrate hydrolysis assay, MMP-1FL. Particulars: HEPES pH 7.0, 22° C., read-out: IC50 (μM) Versus Certain MMPs: MMP-01 FL. The text has this:
(§1) The invention compounds of Formula I have been evaluated in standard assays for their ability to inhibit the catalytic activity of various MMP enzymes.
(§2) Thiopeptolide substrates show virtually no decomposition or hydrolysis at or below neutral pH in the absence of a matrix metalloproteinase enzyme.
(§3) Several representative compounds have been evaluated for their ability to inhibit various matrix metalloproteinase enzymes.

The target of experiment [2] is T2, MMP-7FL (full length matrilysin) (Homo sapiens, UniProt P09237).
T2 sequence (P09237 95-267): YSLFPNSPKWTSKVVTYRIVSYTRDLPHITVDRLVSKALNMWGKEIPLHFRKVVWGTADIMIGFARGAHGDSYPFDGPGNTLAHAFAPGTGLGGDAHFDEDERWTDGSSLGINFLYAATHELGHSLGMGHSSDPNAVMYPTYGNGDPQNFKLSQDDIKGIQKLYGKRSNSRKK
Description: Thiopeptolide substrate hydrolysis assay, MMP-7FL. The following applies: HEPES pH 7.0, 22° C., read-out: IC50 (μM) Versus Certain MMPs: MMP-07 FL.
Description: as §1, §2, §3

Experiment [3] has as its target MMP-3CD (catalytic domain of stromelysin-1) (Homo sapiens, UniProt P08254). Kind of experiment: Thiopeptolide substrate hydrolysis assay, MMP-3CD. The following applies: MES buffer pH 6.0, read-out: IC50 (μM) Versus Certain MMPs: MMP-03 CD. As for the experimental part:
as §1, §2, §3
It should be appreciated that the assay buffer used with MMP-3CD was 50 mM N-morpholinoethane sulfonate (−MES=) at pH 6.0 rather than the HEPES buffer at pH 7.0 described above.

The target of experiment [4] is MMP-13CD (catalytic domain of collagenase 3) (Homo sapiens, UniProt P45452). Kind of experiment: Thiopeptolide substrate hydrolysis assay, MMP-13CD. The following applies: thiopeptolide substrate, HEPES pH 7.0, 22° C.
Description: as §2

In experiment [5] the target is MMP-14CD (catalytic domain of MMP-14) (Homo sapiens, UniProt P50281). Kind of experiment: Thiopeptolide substrate hydrolysis assay, MMP-14CD. The following applies: HEPES pH 7.0, 22° C., read-out: IC50 (μM) Versus Certain MMPs: MMP-14 CD.
Description: as §1, §2, §3

In experiment [6] the target is T3, MMP-2FL (full length Gelatinase A) (Homo sapiens, UniProt P08253).
T3 sequence (P08253 110-660): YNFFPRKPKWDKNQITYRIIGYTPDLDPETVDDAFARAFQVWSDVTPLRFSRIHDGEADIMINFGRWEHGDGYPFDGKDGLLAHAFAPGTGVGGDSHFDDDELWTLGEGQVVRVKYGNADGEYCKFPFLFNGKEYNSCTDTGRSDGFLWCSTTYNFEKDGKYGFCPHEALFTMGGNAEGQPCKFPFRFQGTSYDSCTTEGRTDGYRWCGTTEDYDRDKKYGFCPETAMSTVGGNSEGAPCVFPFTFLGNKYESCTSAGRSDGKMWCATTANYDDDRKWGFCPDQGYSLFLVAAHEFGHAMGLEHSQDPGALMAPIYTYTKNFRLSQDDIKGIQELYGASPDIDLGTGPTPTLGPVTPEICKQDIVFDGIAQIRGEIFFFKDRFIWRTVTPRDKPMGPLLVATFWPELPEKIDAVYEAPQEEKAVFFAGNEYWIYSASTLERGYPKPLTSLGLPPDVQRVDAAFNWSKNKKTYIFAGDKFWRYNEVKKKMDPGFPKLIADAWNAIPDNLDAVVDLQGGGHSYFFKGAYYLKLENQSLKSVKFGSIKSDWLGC
Kind of experiment: Thiopeptolide substrate hydrolysis assay, MMP-2FL. The following applies: HEPES pH 7.0, 22° C., read-out: IC50 (μM) Versus Certain MMPs: MMP-02 FL.
Description: as §1, §2, §3

Experiment [7] has as its target MMP-9FL (full length Gelatinase B) (Homo sapiens, UniProt P14780). Description: Thiopeptolide substrate hydrolysis assay, MMP-9FL. The following applies: HEPES pH 7.0, 22° C., read-out: IC50 (μM) Versus Certain MMPs: MMP-09 FL.
Description: as §1, §2, §3

Setting [8] is: IC50 (μM) Versus Certain MMPs: MMP-13 CD.

Sequence of MMP-9FL (full length Gelatinase B) (P14780 94-707, species assumed): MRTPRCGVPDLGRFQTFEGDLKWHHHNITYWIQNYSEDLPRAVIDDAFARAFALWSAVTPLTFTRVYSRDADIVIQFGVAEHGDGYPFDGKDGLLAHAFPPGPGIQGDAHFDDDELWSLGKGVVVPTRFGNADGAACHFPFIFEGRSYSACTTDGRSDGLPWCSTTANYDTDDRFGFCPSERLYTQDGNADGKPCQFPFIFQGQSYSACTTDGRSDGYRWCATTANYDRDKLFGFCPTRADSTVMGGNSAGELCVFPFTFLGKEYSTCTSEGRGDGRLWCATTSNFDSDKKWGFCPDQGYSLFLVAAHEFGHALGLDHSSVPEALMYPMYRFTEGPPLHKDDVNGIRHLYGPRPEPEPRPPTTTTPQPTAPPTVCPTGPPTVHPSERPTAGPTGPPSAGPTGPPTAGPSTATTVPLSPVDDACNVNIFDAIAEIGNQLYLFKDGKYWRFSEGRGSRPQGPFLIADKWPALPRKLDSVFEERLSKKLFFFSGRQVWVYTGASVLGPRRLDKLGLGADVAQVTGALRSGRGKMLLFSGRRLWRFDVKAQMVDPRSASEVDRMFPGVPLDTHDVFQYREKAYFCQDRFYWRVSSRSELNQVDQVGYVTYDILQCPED
Sequence of MMP-3CD (catalytic domain of stromelysin-1) (P08254 100-272 limits assumed): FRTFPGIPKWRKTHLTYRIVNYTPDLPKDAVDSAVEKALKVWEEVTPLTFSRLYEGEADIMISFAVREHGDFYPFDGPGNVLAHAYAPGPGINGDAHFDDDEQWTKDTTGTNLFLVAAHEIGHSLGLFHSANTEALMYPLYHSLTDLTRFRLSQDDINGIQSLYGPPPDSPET

For `O=C(Nc1ccc(-c2ccccc2)cc1)c1cn2c(=O)n(Cc3ccccc3)c(=O)cc2s1` [Example 6, 6-Benzyl-5,7-dioxo-6,7-dihydro-5H-thiazolo[3,2-c]pyrimidine-2-carboxylic acid biphenyl-4-ylamide], the IC50 in experiment [1] is over 30 µM; in experiment [2] it was 9.2 µM; in experiment [3], 3.5 µM; in experiment [4] (read-out: IC50 (μM) Versus Certain MMPs: MMP-13 CD), 23 µM; in experiment [5] it was 7.3 µM; in experiment [6], over 30 µM. Moreover, the IC50 in experiment [7] is over 30 µM.

For `COc1cc(CNC(=O)c2cn3c(=O)n(Cc4ccccc4)c(=O)c(C)c3s2)ccn1` [Example 37], the IC50 in experiment [1] was over 30 µM; in experiment [2] it was over 30 µM; in experiment [3], 10 µM; in experiment [4] (setting [8]) it was 0.0175 µM; in experiment [5], over 30 µM; in experiment [6], over 30 µM. In addition, the IC50 in experiment [7] is over 30 µM.

As for `O=C(CCc1ccccc1)c1cn2c(=O)n(Cc3ccccc3)c(=O)cc2s1` [Example 8, 6-Benzyl-2-(3-phenyl-propionyl)-thiazolo[3,2-c]pyrimidine-5,7-dione], the IC50 is over 100 µM in experiment [1]; over 30 µM in experiment [2]; 3.2 µM in experiment [3]; 6.6 µM in experiment [4] (setting [8]); 8.8 µM in experiment [5]; over 100 µM in experiment [6]. In addition, the IC50 in experiment [7] was over 100 µM.

With `O=C(NCc1ccccc1)c1cn2c(=O)n(Cc3ccccc3)c(=O)cc2s1` [Example 4, 6-Benzyl-5,7-dioxo-6,7-dihydro-5H-thiazolo[3,2-c]pyrimidine-2-carboxylic acid benzylamide], the IC50 was 81 µM in experiment [1]; 65 µM in experiment [2]; 27 µM in experiment [3]; 0.572 µM in experiment [4] (setting [8]); 47.5 µM in experiment [5]; over 100 µM in experiment [6]. Besides, the half-inhibitory concentration (IC50) in experiment [7] came to 83.5 µM.

One may read the IC50 as the concentration needed to halve the response being measured.
